This is an account of results in ChEMBL document CHEMBL3769379, “SAR Studies of 5-Aminopyrazole-4-carboxamide Analogues as Potent and Selective Inhibitors of Toxoplasma gondii CDPK1” (ACS Med Chem Lett, 2015).

Data set [1] addresses T1, Calmodulin-domain protein kinase 1 (Toxoplasma gondii, UniProt Q9BJF5).
T1 sequence (Q9BJF5 whole entry): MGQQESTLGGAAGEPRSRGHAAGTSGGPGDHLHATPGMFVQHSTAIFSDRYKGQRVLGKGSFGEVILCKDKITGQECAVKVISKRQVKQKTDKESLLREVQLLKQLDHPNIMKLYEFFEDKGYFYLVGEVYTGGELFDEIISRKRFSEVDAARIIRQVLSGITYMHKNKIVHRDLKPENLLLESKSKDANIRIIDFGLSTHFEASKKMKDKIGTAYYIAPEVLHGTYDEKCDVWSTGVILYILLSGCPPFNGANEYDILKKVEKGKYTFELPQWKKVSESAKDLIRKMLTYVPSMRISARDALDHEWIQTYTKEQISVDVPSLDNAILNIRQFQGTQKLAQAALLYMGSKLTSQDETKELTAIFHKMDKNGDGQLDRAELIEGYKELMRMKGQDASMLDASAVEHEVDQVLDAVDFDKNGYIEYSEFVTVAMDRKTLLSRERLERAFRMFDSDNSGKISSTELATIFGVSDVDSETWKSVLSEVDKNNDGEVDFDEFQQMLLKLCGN

Data set [2] in a line: Cytotoxicity against human CRL8155 cells after 48 hrs by Alamar Blue assay. As to conditions: crl8155, 48 h. It counts as cell-based.
Data set [3] is described as follows: Solubility of the compound in PBS incubated overnight at pH 6.5 by HPLC-UV analysis. The class given is physicochemical. Conditions: buffer.
The target of data set [4] is Proto-oncogene tyrosine-protein kinase Src (Homo sapiens, UniProt P12931).
Proto-oncogene tyrosine-protein kinase Src, sequence (P12931 2-536 limits assumed): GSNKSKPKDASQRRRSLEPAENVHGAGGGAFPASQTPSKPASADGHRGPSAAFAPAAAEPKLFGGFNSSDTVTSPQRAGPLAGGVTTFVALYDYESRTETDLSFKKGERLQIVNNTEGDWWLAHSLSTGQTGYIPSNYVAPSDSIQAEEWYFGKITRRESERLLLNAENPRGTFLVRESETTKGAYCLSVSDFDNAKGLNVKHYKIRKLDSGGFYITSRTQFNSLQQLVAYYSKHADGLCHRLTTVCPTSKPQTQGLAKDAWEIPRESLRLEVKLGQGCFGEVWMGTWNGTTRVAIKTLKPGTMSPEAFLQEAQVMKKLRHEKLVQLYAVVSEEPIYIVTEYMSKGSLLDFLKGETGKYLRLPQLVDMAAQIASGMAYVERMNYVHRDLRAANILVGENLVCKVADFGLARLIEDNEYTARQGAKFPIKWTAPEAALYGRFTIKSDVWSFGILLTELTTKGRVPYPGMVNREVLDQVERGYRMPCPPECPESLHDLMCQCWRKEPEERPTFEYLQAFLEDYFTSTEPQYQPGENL
The conditions of data set [5]: human, plasma, 4 h.
Description: Fraction unbound in human plasma after 4 hrs by LC/MS analysis
Data set [6] relates to Mus musculus. Briefly: Toxicity in CF-1 mouse infected with Toxoplasma gondii RH assessed as altered grooming at 20 to 50 mg/kg, po qd administered for 5 days. The class given is organism-based. Conditions: in vivo, 120 h.
For data set [7], the system named is Mus musculus. Briefly: Toxicity in CF-1 mouse infected with Toxoplasma gondii RH assessed as lethargy at 20 mg/kg, po qd administered for 5 days. The class given is organism-based. Conditions: in vivo, 120 h.
Data set [8] deals with Toxoplasma gondii. Nature of the data set: Antiprotozoan activity against Toxoplasma gondii infected in fibroblasts assessed as growth inhibition at low concentration after 2 days by beta-galactosidase reporter assay. It counts as functional, organism-based.
For data set [9], the system named is Mus musculus. Nature of the data set: Toxicity in CF-1 mouse infected with Toxoplasma gondii RH assessed as weight loss at 20 to 50 mg/kg, po qd administered for 5 days. As to conditions: in vivo, 120 h. The class given is organism-based.
The subject of data set [10] is Toxoplasma gondii. Briefly: Antiprotozoan activity against Toxoplasma gondii overexpressing wild type CDPK1 infected in fibroblasts assessed as growth inhibition at low concentration after 2 days by beta-galactosidase reporter assay. The class given is functional, organism-based.
Data set [11] can be described thus: Ratio of drug level in brain to plasma in mouse at 5 mg/kg, ip by LC/MS analysis. It counts as ADME, organism-based.
The subject of data set [12] is Toxoplasma gondii. Nature of the data set: Antiprotozoan activity against Toxoplasma gondii RH infected in CF-1 mouse assessed as reduction of parasite burden in brain at 20 to 50 mg/kg, po qd administered for 5 days measured 24 hrs post last dose by quantitative RT-PCR analysis relative to control. The class given is functional.
The test system of data set [13] is Mus musculus. Nature of the data set: Toxicity in CF-1 mouse infected with Toxoplasma gondii RH assessed as mortality at 50 mg/kg, po qd administered for 5 days measured on day 5. It counts as organism-based. As to conditions: in vivo, 120 h.
Data set [14] relates to Mus musculus. Briefly: Toxicity in CF-1 mouse infected with Toxoplasma gondii RH assessed as weight loss at 5 to 40 mg/kg, po bid administered for 5 days. It counts as organism-based. Conditions: in vivo, 120 h.
Data set [15] deals with Toxoplasma gondii. Briefly: Antiprotozoan activity against Toxoplasma gondii RH infected in CF-1 mouse assessed as reduction of parasite burden in peritoneal fluid at 5 to 10 mg/kg, po bid administered for 5 days measured 24 hrs post last dose by hemocytometer-based fluorescence microscopy. The class given is functional, organism-based.
The test system of data set [16] is Toxoplasma gondii. Briefly: Antiprotozoan activity against Toxoplasma gondii RH infected in CF-1 mouse assessed as reduction of parasite burden in peritoneal fluid at 20 to 40 mg/kg, po bid administered for 5 days measured 24 hrs post last dose by hemocytometer-based fluorescence microscopy relative to control. The class given is functional.
For data set [17], the system named is Mus musculus. Briefly: Toxicity in CF-1 mouse infected with Toxoplasma gondii RH assessed as lethargy at 5 to 40 mg/kg, po bid administered for 5 days. The class given is organism-based. Conditions: in vivo, 120 h.
Data set [18] concerns Mus musculus. Briefly: Toxicity in CF-1 mouse infected with Toxoplasma gondii RH assessed as altered grooming at 5 to 40 mg/kg, po bid administered for 5 days. The class given is organism-based. As to conditions: in vivo, 120 h.
For data set [19], the system named is Mus musculus. Nature of the data set: Toxicity in CF-1 mouse infected with Toxoplasma gondii RH assessed as lethargy at 20 to 50 mg/kg, po qd administered for 5 days. The class given is organism-based. Conditions: in vivo, 120 h.

The structures appear in SMILES notation. Calls of active or inactive are those of the source. No cut-off for these calls is given here. Some results are limits rather than exact numbers.

The compound `CCOc1ccc2cc(-c3nn(C(C)CO)c(N)c3C(N)=O)cnc2c1` (centres undefined) yielded an IC50 in data set [1] of 0.026 µM.

With `CC(C)(C)n1nc(-c2ccc3nc(OC4CCC4)ccc3c2)c(C(N)=O)c1N`, the Activity in data set [2] is above 40 µM. This compound yielded an IC50 in data set [1] of 0.012 µM.

Compound `CC(C)(C)n1nc(-c2cnc3cc(OC(F)(F)F)ccc3c2)c(C(N)=O)c1N` displayed an IC50 in [1] of 0.039 µM. That is a double-digit nanomolar value.

In turn, `CC(C)(C)n1nc(-c2cnc3cc(OC4CCC4)ccc3c2)c(C(N)=O)c1N` had an Activity in data set [2] above 40 µM. The solubility entry in data set [3] was “Insoluble”. The compound further showed a half-inhibitory concentration (IC50) in [1] of 0.007 µM.

In data set [2], `CCOc1ccc2cc(-c3nn(C4CCC4)c(N)c3C(N)=O)cnc2c1` yielded an Activity above 40 µM.

As to `CCCOc1ccc2cc(-c3nn(C(C)(C)C)c(N)c3C(N)=O)cnc2c1`, in data set [2], the Activity was above 40 µM.

As for `CCOc1ccc2cc(-c3nn(CC(C)(C)CO)c(N)c3C(N)=O)cnc2c1`, the 50% inhibitory concentration (IC50) in [4] is above 10 µM. In data set [2], this compound displayed an Activity above 40 µM.

Regarding `CC(C)Oc1ccc2cc(-c3nn(C(C)(C)C)c(N)c3C(N)=O)cnc2c1`, the Activity in data set [2] was above 40 µM. This compound also gave an IC50 in data set [1] of 0.016 µM.

Compound `CC(C)(C)n1nc(-c2cnc3cc(OCC4CC4)ccc3c2)c(C(N)=O)c1N` gave an IC50 in [4] above 10 µM. Also, in data set [2], the Activity is above 40 µM.

In turn, `CCOc1ccc2cc(-c3nn(CC(C)(C)CO)c(N)c3C(N)=O)ccc2n1` registered an Activity in data set [2] above 40 µM. The solubility result in data set [3] is “soluble”.

For the compound `CC(C)(C)n1nc(-c2ccc3nc(OC4CC4)ccc3c2)c(C(N)=O)c1N`, the Fu in [5] turned out to be 88%. Moreover, the Activity result in the data set with Mus musculus [6] is “Non-toxic”; in data set [2] it was above 40 µM; in the data set with Mus musculus [7], “Non-toxic”; with Mus musculus [9], “Non-toxic”; in the data set with Mus musculus [13] it was “Toxic”. The “growth inhibition (GI)” value in the data set on Toxoplasma gondii [8] and in the data set on Toxoplasma gondii [10] was “inactive” throughout. The compound further returned an IC50 in data set [1] of 0.0046 µM. In addition, the BPR in data set [11] was determined as 43%. The “fold change (FC)” value in the data set with Toxoplasma gondii [12] is above 5.

`CCOc1ccc2cc(-c3nn(CC4CC4)c(N)c3C(N)=O)ccc2n1`: in data set [2], the Activity is above 40 µM. Moreover, in [1], the IC50 is 0.0079 µM.

Take `CCOc1ccc2cc(-c3nn(CC4CC4)c(N)c3C(N)=O)cnc2c1`: the Activity in data set [2] is above 40 µM. The compound further returned an IC50 in data set [1] of 0.015 µM.

In data set [2], `CCOc1ccc2cc(-c3nn(C4CCCCC4)c(N)c3C(N)=O)ccc2n1` showed an Activity above 40 µM. Further, the midpoint of inhibition in data set [1], the IC50, lay at 0.0055 µM.

`CCOc1ccc2cc(-c3nn(C(C)(C)C)c(N)c3C(N)=O)ccc2n1` registered an Activity in data set [2] above 40 µM.

For `CCOc1ccc2cc(-c3nn(C4CCCCCC4)c(N)c3C(N)=O)ccc2n1`, the IC50 in [1] turned out to be 0.017 µM.

Regarding `COc1ccc2cc(-c3nn(C(C)(C)C)c(N)c3C(N)=O)cnc2c1`, the Activity in [2] is above 40 µM.

For the compound `CCOc1ccc2cc(-c3nn(C4CCCCCC4)c(N)c3C(N)=O)cnc2c1`, the Activity in data set [2] was above 40 µM.

For `CCOc1ccc2cc(-c3nn(C(C)(C)C)c(N)c3C(N)=O)cnc2c1`, the Fu in [5] came out at 57%. For the same compound, the Activity result with Mus musculus [14], in the data set with Mus musculus [17] and with Mus musculus [18] was “Non-toxic” each time. In addition, the solubility entry in data set [3] was “Insoluble”. The result in the data set with Toxoplasma gondii [15] was Active. The “fold change (FC)” value in the data set with Toxoplasma gondii [16] was above 10. In addition, in data set [11], the BPR came out at 15.8%.

`CC(C)(C)n1nc(-c2cnc3cc(F)ccc3c2)c(C(N)=O)c1N` gave an Activity in data set [2] above 40 µM.

In [2], `CCOc1ccc2cc(-c3nn(C4CCCC4)c(N)c3C(N)=O)cnc2c1` came in with an Activity above 40 µM.

In data set [2], `CCOc1ccc2cc(-c3nn(C(C)C)c(N)c3C(N)=O)ccc2n1` had an Activity above 40 µM. In data set [1], this compound registered an IC50 of 0.0065 µM.

With `CC(C)(C)n1nc(-c2cnc3cc(OC4CC4)ccc3c2)c(C(N)=O)c1N`, the Activity result in the data set with Mus musculus [6] is “Non-toxic”; in data set [2], above 40 µM; in the data set with Mus musculus [9] it was “Non-toxic”; in the data set with Mus musculus [19], “Non-toxic”. In addition, the solubility entry in [3] is recorded as “soluble”. Moreover, the “growth inhibition (GI)” value in the data set with Toxoplasma gondii [8] and with Toxoplasma gondii [10] was “inactive” each time. In addition, the BPR in data set [11] stood at 16%.

With `CCOc1ccc2cc(-c3nn(CC(C)(C)O)c(N)c3C(N)=O)cnc2c1`, it took 0.113 µM to reach half-maximal inhibition in [1] (IC50).
